Test [1] concerns Staphylococcus aureus. In words: Antibacterial activity against Staphylococcus aureus SMH37390 by broth dilution method. The format is functional.
Test [2] relates to Staphylococcus aureus. In words: Antibacterial activity against Staphylococcus aureus SMH37276 by broth dilution method. The format is functional.
Test [3] relates to Staphylococcus aureus. In words: Antibacterial activity against Staphylococcus aureus SMH37312 by broth dilution method.
For test [4], the system named is Staphylococcus aureus. As to the kind of experiment: Antibacterial activity against Staphylococcus aureus SMH36945 by broth dilution method.
In test [5] the test system is Staphylococcus aureus. In words: Antibacterial activity against Staphylococcus aureus SMH38004 by broth dilution method. Format: functional.
The test system of test [6] is Staphylococcus aureus. As to the kind of experiment: Antibacterial activity against Staphylococcus aureus SMH37099 by broth dilution method.
Test [7] deals with Staphylococcus aureus. As to the kind of experiment: Antibacterial activity against Staphylococcus aureus SMH36742 by broth dilution method.
Test [8] relates to Staphylococcus aureus. As to the kind of experiment: Antibacterial activity against Staphylococcus aureus SMH36633 by broth dilution method.

We go through 1 compound from ChEMBL document CHEMBL1649300, “Bacterial strain-to-strain variation in pharmacodynamic index magnitude, a hitherto unconsidered factor in establishing antibiotic clinical breakpoints” (2009).

≈ marks a conversion by molar mass, not a printed value.

Take `COc1c(N2C[C@@H]3CCCN[C@@H]3C2)c(F)cc2c(=O)c(C(=O)O)cn(C3CC3)c12` [MOXIFLOXACIN]: the MIC came out at 0.04 µg/mL (≈ 0.0996 µM) with Staphylococcus aureus [1]; 0.7 µg/mL (≈ 1.74 µM) with Staphylococcus aureus [2]; 0.03 µg/mL (≈ 0.0747 µM) with Staphylococcus aureus [3]; 2 µg/mL (≈ 4.98 µM) against Staphylococcus aureus [4]; 0.09 µg/mL (≈ 0.224 µM) in the test with Staphylococcus aureus [5]; 0.03 µg/mL (≈ 0.0747 µM) in the test with Staphylococcus aureus [6]. For the same compound, the MIC was found to be 1 µg/mL (≈ 2.49 µM) in the test on Staphylococcus aureus [7] and 0.03 µg/mL (≈ 0.0747 µM) with Staphylococcus aureus [8].
